Patent US7846959B2, “Raf modulators and methods of use” (Exelixis, Inc., priority 2004, dated 2010)
pIC50: −log10 of the molar value.

Experiments:
c-Raf = c-Raf (Homo sapiens, UniProt P04049); assay: Luciferase-coupled chemiluminescence kinase assay (ATP consumption), c-Raf; assay type: biochemical; conditions: read-out: cRaf-1 (inhibition indicated as IC50)
Procedure, shortened: (§1)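 ATP depletion, limited to 25-60%, read by luciferase-luciferin chemiluminescence gives IC50 values. Before the 3 hr ambient-temperature kinase reaction with ATP, compound and […] enzyme were preincubated 30 minutes at room temperature in Tris pH 7.5 buffer with MgCl2, TX-100 and DTT.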

B-Raf = B-Raf (Homo sapiens, UniProt P15056); assay: Luciferase-coupled chemiluminescence kinase assay (ATP consumption), B-Raf; assay type: biochemical; conditions: read-out: bRaf (inhibition indicated as IC50)
Procedure, shortened: as §1

B-Raf, sequence (P15056 whole entry): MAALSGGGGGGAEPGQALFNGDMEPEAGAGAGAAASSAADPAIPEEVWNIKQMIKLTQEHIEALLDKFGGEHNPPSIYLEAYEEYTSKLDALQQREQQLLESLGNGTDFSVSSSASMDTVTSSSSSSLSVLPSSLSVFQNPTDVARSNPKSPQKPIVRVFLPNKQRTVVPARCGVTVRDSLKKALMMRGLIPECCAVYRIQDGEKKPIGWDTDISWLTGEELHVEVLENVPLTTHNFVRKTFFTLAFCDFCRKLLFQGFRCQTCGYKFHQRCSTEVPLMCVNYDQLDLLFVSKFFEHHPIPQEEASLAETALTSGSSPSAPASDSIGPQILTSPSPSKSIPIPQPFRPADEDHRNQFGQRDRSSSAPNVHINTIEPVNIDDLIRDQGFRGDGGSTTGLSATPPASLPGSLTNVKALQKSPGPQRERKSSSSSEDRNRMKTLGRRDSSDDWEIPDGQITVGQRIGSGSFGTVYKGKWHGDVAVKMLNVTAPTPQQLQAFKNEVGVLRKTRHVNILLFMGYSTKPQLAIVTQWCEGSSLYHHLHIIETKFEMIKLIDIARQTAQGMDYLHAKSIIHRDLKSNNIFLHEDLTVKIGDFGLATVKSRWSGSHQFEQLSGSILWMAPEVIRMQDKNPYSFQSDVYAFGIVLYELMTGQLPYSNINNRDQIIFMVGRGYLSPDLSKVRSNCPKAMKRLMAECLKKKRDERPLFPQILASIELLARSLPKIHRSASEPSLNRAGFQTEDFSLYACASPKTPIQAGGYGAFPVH
c-Raf, sequence (P04049 whole entry): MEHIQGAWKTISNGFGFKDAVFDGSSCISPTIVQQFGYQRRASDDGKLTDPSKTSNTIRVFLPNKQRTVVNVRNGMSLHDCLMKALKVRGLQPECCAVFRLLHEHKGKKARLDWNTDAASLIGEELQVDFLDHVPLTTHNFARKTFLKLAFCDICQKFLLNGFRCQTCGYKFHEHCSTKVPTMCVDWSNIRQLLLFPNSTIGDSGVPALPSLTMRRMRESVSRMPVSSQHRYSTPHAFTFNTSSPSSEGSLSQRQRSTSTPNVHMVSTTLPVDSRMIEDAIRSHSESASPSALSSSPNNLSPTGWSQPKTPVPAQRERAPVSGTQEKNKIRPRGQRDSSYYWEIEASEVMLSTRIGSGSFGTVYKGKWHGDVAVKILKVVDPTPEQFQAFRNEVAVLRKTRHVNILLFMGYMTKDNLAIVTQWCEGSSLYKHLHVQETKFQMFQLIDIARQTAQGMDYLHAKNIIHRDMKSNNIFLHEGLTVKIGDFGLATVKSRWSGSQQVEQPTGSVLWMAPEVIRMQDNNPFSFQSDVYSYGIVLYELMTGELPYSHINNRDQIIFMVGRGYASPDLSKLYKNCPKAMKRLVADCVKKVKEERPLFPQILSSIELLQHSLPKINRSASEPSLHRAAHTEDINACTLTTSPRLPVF

| SMILES | pIC50 (c-Raf) | pIC50 (B-Raf) |
| --- | --- | --- |
| O=C(Nc1nc2ccc(C3(O)c4ccccc4C(=O)N3c3cccc(Cl)c3F)cc2[nH]1)OCCCN1CCCCC1 (stereo not drawn) [Entry 294, 3-piperidin-1-ylpropyl {6-[2-(3-chloro-2-fluorophenyl)-1-hydroxy-3-oxo-2,3-dihydro-1H-isoindol-1-yl]-1H-benzimidazol-2-yl}carbamate] | 5.00 to 6.00 | 5.00 to 6.00 |
| O=C(Nc1nc2ccc(C3c4ccccc4C(=O)N3c3cccc(Br)c3)cc2[nH]1)OCCN1CCCCC1 (stereo not drawn) [Entry 295, 2-piperidin-1-ylethyl {6-[2-(3-bromophenyl)-3-oxo-2,3-dihydro-1H-isoindol-1-yl]-1H-benzimidazol-2-yl}carbamate] | > 7.00 | 6.00 to 7.00 |
| COC(=O)Nc1nc2ccc(C3(O)c4c(F)ccc(F)c4C(=O)N3c3cccc(Br)c3)cc2[nH]1 (stereo not drawn) [Entry 296, methyl {6-[2-(3-bromophenyl)-4,7-difluoro-1-hydroxy-3-oxo-2,3-dihydro-1H-isoindol-1-yl]-1H-benzimidazol-2-yl}carbamate] | > 7.00 | > 7.00 |
| CN(CCOC(=O)Nc1nc2cc(C3(O)c4ccccc4C(=O)N3c3cccc(Cl)c3F)ccc2[nH]1)Cc1ccccc1 (stereo not drawn) [Entry 297, 2-[methyl(phenylmethyl)amino]ethyl {5-[2-(3-chloro-2-fluorophenyl)-1-hydroxy-3-oxo-2,3-dihydro-1H-isoindol-1-yl]-1H-benzimidazol-2-yl}carbamate] | > 7.00 | > 7.00 |
| COC(=O)Nc1nc2cc(C3(O)c4ccccc4C(=O)N3c3cccc(N4CCCC4)c3)ccc2[nH]1 (stereo not drawn) [Entry 298, methyl {5-[1-hydroxy-3-oxo-2-(3-pyrrolidin-1-ylphenyl)-2,3-dihydro-1H-isoindol-1-yl]-1H-benzimidazol-2-yl}carbamate] | 5.00 to 6.00 | 5.00 to 6.00 |
| COC(=O)Nc1nc2cc(C3(O)c4ccccc4C(=O)N3c3cc(Cl)cc(F)c3F)ccc2[nH]1 (stereo not drawn) [Entry 299, methyl {5-[2-(5-chloro-2,3-difluorophenyl)-1-hydroxy-3-oxo-2,3-dihydro-1H-isoindol-1-yl]-1H-benzimidazol-2-yl}carbamate] | > 7.00 | > 7.00 |
| COC(=O)Nc1nc2cc(C3(O)c4ccccc4C(=O)N3CC3CCCN3)ccc2[nH]1 (stereo not drawn) [Entry 300, methyl {5-[1-hydroxy-3-oxo-2-(pyrrolidin-2-ylmethyl)-2,3-dihydro-1H-isoindol-1-yl]-1H-benzimidazol-2-yl}carbamate] | 5.00 to 6.00 | 5.00 to 6.00 |
| COC(=O)Nc1nc2cc(C3(O)c4ccccc4C(=O)N3CC3CCNC3)ccc2[nH]1 (stereo not drawn) [Entry 301, methyl {5-[1-hydroxy-3-oxo-2-(pyrrolidin-3-ylmethyl)-2,3-dihydro-1H-isoindol-1-yl]-1H-benzimidazol-2-yl}carbamate] | 5.00 to 6.00 | 5.00 to 6.00 |
| CN1CCCCC1COC(=O)Nc1nc2ccc(C3(O)c4ccccc4C(=O)N3c3cccc(Cl)c3F)cc2[nH]1 (stereo not drawn) [Entry 302, (1-methylpiperidin-2-yl)methyl {6-[2-(3-chloro-2-fluorophenyl)-1-hydroxy-3-oxo-2,3-dihydro-1H-isoindol-1-yl]-1H-benzimidazol-2-yl}carbamate] | > 7.00 | > 7.00 |
| CN1CCC[C@H]1COC(=O)Nc1nc2ccc(C3(O)c4ccccc4C(=O)N3c3cccc(Cl)c3F)cc2[nH]1 (stereo partly drawn) [Entry 303, [(2S)-1-methylpyrrolidin-2-yl]methyl {6-[2-(3-chloro-2-fluorophenyl)-1-hydroxy-3-oxo-2,3-dihydro-1H-isoindol-1-yl]-1H-benzimidazol-2-yl}carbamate] | > 7.00 | > 7.00 |
| O=C(Nc1nc2ccc(C3(O)c4ccccc4C(=O)N3c3cccc(Cl)c3F)cc2[nH]1)OCC1CCCN2CCCCC12 (stereo not drawn) [Entry 304, octahydro-2H-quinolizin-1-ylmethyl {6-[2-(3-chloro-2-fluorophenyl)-1-hydroxy-3-oxo-2,3-dihydro-1H-isoindol-1-yl]-1H-benzimidazol-2-yl}carbamate] | > 7.00 | > 7.00 |
| COC(=O)Nc1nc2cc(C3(O)c4ccccc4C(=O)N3c3cc(Br)ccc3C)ccc2[nH]1 (stereo not drawn) [Entry 305, methyl {5-[2-(5-bromo-2-methylphenyl)-1-hydroxy-3-oxo-2,3-dihydro-1H-isoindol-1-yl]-1H-benzimidazol-2-yl}carbamate] | > 7.00 | > 7.00 |
| O=C1c2ccccc2C(O)(c2ccc3[nH]c(=O)[nH]c3c2)N1c1cccc(Cl)c1F (stereo not drawn) [Entry 306, 5-[2-(3-chloro-2-fluorophenyl)-1-hydroxy-3-oxo-2,3-dihydro-1H-isoindol-1-yl]-1,3-dihydro-2H-benzimidazol-2-one] | 5.00 to 6.00 | 5.00 to 6.00 |
| COC(=O)Nc1nc2cc(C3(O)c4ccccc4C(=O)N3c3cc(F)cc(Br)c3F)ccc2[nH]1 (stereo not drawn) [Entry 307, methyl {5-[2-(3-bromo-2,5-difluorophenyl)-1-hydroxy-3-oxo-2,3-dihydro-1H-isoindol-1-yl]-1H-benzimidazol-2-yl}carbamate] | > 7.00 | > 7.00 |
| O=C(Nc1nc2ccc(C3(O)c4ccccc4C(=O)N3c3cccc(Cl)c3F)cc2[nH]1)OCCN1CCOCC1 (stereo not drawn) [Entry 308, 2-morpholin-4-ylethyl {6-[2-(3-chloro-2-fluorophenyl)-1-hydroxy-3-oxo-2,3-dihydro-1H-isoindol-1-yl]-1H-benzimidazol-2-yl}carbamate] | > 7.00 | > 7.00 |
| CN1CCCC(COC(=O)Nc2nc3ccc(C4(O)c5ccccc5C(=O)N4c4cccc(Cl)c4F)cc3[nH]2)C1 (stereo not drawn) [Entry 309, (1-methylpiperidin-3-yl)methyl {6-{2-(3-chloro-2-fluorophenyl)-1-hydroxy-3-oxo-2,3-dihydro-1H-isoindol-1-yl]-1H-benzimidazol-2-yl}carbamate] | > 7.00 | > 7.00 |
| COC(=O)Nc1nc2cc(C3(O)c4ccccc4C(=O)N3c3cc(Cl)ccc3OC)ccc2[nH]1 (stereo not drawn) [Entry 310, methyl (5-{2-[5-chloro-2-(methyloxy)phenyl]-1-hydroxy-3-oxo-2,3-dihydro-1H-isoindol-1-yl}-1H-benzimidazol-2-yl)carbamate] | > 7.00 | > 7.00 |
| COC(=O)Nc1nc2cc(C3(O)c4ccccc4C(=O)N3c3cccc(N(C)C4CCCCC4)c3)ccc2[nH]1 (stereo not drawn) [Entry 311, methyl [5-(2-{3-[cyclohexyl(methyl)amino]phenyl}-1-hydroxy-3-oxo-2,3-dihydro-1H-isoindol-1-yl)-1H-benzimidazol-2-yl]carbamate] | > 7.00 | > 7.00 |
| O=C(Nc1nc2ccc(C3(O)c4ccccc4C(=O)N3c3cccc(Cl)c3F)cc2[nH]1)OCC1CC2CCC(C1)N2 (stereo not drawn) [Entry 312, 8-azabicyclo[3.2.1]oct-3-ylmethyl {6-[2-(3-chloro-2-fluorophenyl)-1-hydroxy-3-oxo-2,3-dihydro-1H-isoindol-1-yl]-1H-benzimidazol-2-yl}carbamate] | > 7.00 | > 7.00 |
| COC(=O)Nc1nc2ccc(C3CCC(=O)N3c3cccc(Br)c3)cc2[nH]1 (stereo not drawn) [Entry 313, methyl {6-[1-(3-bromophenyl)-5-oxopyrrolidin-2-yl]-1H-benzimidazol-2-yl}carbamate] | 5.00 to 6.00 | 5.00 to 6.00 |
| CN1CCC(COC(=O)Nc2nc3cc(C4(O)c5ccccc5C(=O)N4Cc4ccccc4)ccc3[nH]2)CC1 (stereo not drawn) [Entry 314, (1-methylpiperidin-4-yl)methyl {5-[1-hydroxy-3-oxo-2-(phenylmethyl)-2,3-dihydro-1H-isoindol-1-yl]-1H-benzimidazol-2-yl}carbamate] | > 7.00 | > 7.00 |
| CC(C)(C)OC(=O)N1CCC(COC(=O)Nc2nc3cc(C4(O)c5ccccc5C(=O)N4Cc4ccccc4)ccc3[nH]2)CC1 (stereo not drawn) [Entry 315, 1,1-dimethylethyl 4-({[({5-[1-hydroxy-3-oxo-2-(phenylmethyl)-2,3-dihydro-1H-isoindol-1-yl]-1H-benzimidazol-2-yl}amino)carbonyl]oxy}methyl)piperidine-1-carboxylate] | 6.00 to 7.00 | 6.00 to 7.00 |
| CN1CCC(COC(=O)Nc2nc3cc(C4(O)c5ccccc5C(=O)N4c4cccc(Cl)c4F)ccc3[nH]2)CC1 (stereo not drawn) [Entry 316, (1-methylpiperidin-4-yl)methyl {5-[2-(3-chloro-2-fluorophenyl)-1-hydroxy-3-oxo-2,3-dihydro-1H-isoindol-1-yl]-1H-benzimidazol-2-yl}carbamate] | > 7.00 | > 7.00 |
| CN1CCC(CCOC(=O)Nc2nc3cc(C4(O)c5ccccc5C(=O)N4c4cccc(Cl)c4F)ccc3[nH]2)CC1 (stereo not drawn) [Entry 317, 2-(1-methylpiperidin-4-yl)ethyl {5-[2-(3-chloro-2-fluorophenyl)-1-hydroxy-3-oxo-2,3-dihydro-1H-isoindol-1-yl]-1H-benzimidazol-2-yl}carbamate] | > 7.00 | > 7.00 |
| COC(=O)C(=O)Nc1nc2ccc(C3(O)c4ccccc4C(=O)N3c3cccc(Cl)c3F)cc2[nH]1 (stereo not drawn) [Entry 318, methyl ({6-[2-(3-chloro-2-fluorophenyl)-1-hydroxy-3-oxo-2,3-dihydro-1H-isoindol-1-yl]-1H-benzimidazol-2-yl}amino)(oxo)acetate] | 5.00 to 6.00 | 5.00 to 6.00 |
| O=C(CCCN1CCCCC1)Nc1nc2cc(C3(O)c4ccccc4C(=O)N3c3cccc(Oc4ccccc4)c3)ccc2[nH]1 (stereo not drawn) [Entry 319, N-(5-{1-hydroxy-3-oxo-2-[3-(phenyloxy)phenyl]-2,3-dihydro-1H-isoindol-1-yl}-1H-benzimidazol-2-yl)-4-piperidin-1-ylbutanamide] | > 7.00 | > 7.00 |
| COC(=O)Nc1nc2ccc(C3(C)c4ccccc4C(=O)N3c3cccc(Br)c3)cc2[nH]1 (stereo not drawn) [Entry 320, methyl {6-[2-(3-bromophenyl)-1-methyl-3-oxo-2,3-dihydro-1H-isoindol-1-yl]-1H-benzimidazol-2-yl}carbamate] | > 7.00 | > 7.00 |
